From publication PMC7357371, “Coumarin analogue 3-methyl-7H-furo[3,2-g]chromen-7-one as a possible antiparkinsonian agent” (Biomédica, 2019)
Marks after values point to notes of the source that are not given here.

Tests used:
[1] = tested on: brain homogenates of mice; experiment: Ex vivo protein carbonyl groups in brain homogenates of haloperidol-treated mice; set-up: species or system mouse; settings: 10 days, FCS005 50 mg/kg p.o., levodopa:carbidopa 400:40 mg/kg p.o., haloperidol 1 mg/kg i.p., compared to control animals
Procedure: (§1) Antioxidant activity was evaluated ex vivo. Mice were administered daily for 10 days with the treatments FCS005 (50 mg/kg, p.o.), levodopa:carbidopa (400 mg/kg:40 mg/kg, p.o.) or vehicle (p.o.) followed by haloperidol (1 mg/kg, i.p.) 30 min later. Then, the animals were killed by decapitation and the brains were removed, washed in 1% KCl, dissected on an ice-cold plate, and homogenized in 50 mM Tris-HCl buffer (pH 7.4). Homogenates were centrifuged (10,000 rpm for 10 min at 4°C). The final supernatant was stored at -20°C. The protein content of each sample was determined by the Bradford method.
Quantification of protein carbonyl groups was determined by the technique of Levine, et al.[28], following the protocol described by Baltacioglu, et al.[29]. Briefly, 250 µL of 10 mM 2,4-dinitrophenylhydrazine (DNPH) or 250 µL of 2 M HCl were added to the brain homogenate (50 µL) for the sample or the blank, respectively. The samples were left at room temperature in the dark for 1 h and vigorously stirred every 15 min. Then, 500 µL of trichloroacetic acid (20%) was added. The samples were kept in an ice bath for 15 min and then centrifuged at 11,000 rpm for 5 min. […] The absorbance was determined at 360 nm. The content of carbonyl groups was calculated based on the molar extinction coefficient of DNPH (ε = 22 000 cm-1M-1) and expressed as nmol/mg protein [29].

male ICR mice [2] = experiment: Reserpine model, reversal of hypokinesia (open-field test); assay type: in vivo, mouse; settings: reserpine 3 mg/kg i.p., 100 mg/kg p.o.
Procedure: (§2) In the reserpine model and l-dopa/carbidopa assays, the locomotor activity was evaluated in the open-field test. The open field was a square arena divided into 16 squares with surrounding walls to prevent escape. Animals were placed individually in the middle of the open field and the specific parameter evaluated was the number of cadres traversed during 5 minutes. The open field was cleaned with a water-alcohol (10%) solution before placing the next animal to eliminate possible bias due to odors left by previous subjects.
The vehicle was a mixture of 15% propylene glycol, 15% glycerol, and enough distilled water to make up 100%. Locomotor activity was evaluated at 2 and 24 h after reserpine administration.

recombinant hMAO-B = biological target: T1, recombinant hMAO-B (Homo sapiens, UniProt P27338); experiment: hMAO-B inhibitory activity (Amplex Red MAO kit)
T1 sequence (P27338 1-520): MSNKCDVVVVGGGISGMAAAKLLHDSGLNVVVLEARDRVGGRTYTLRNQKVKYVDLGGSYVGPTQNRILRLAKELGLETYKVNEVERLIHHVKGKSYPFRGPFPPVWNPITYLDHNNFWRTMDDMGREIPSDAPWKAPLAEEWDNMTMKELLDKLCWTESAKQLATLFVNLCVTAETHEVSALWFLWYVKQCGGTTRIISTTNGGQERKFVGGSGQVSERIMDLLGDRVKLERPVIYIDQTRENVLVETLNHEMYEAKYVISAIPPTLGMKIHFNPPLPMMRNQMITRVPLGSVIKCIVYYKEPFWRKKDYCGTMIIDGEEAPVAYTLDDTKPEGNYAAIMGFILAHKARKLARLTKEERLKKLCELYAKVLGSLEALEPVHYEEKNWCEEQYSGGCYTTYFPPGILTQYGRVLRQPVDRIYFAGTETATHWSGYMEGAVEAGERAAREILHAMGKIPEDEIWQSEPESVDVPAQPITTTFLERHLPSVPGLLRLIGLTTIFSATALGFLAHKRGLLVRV
Procedure: (§3) In the control experiments, the test drugs were replaced with dilutions of the vehicles. In addition, the specific fluorescence emission was calculated after subtraction of the background activity, which was determined from wells containing all components except the hMAO isoforms that were replaced by a sodium phosphate buffer solution.

male ICR mice [3] = experiment: L-dopa/carbidopa plus MAO-B inhibitors in mice pretreated with reserpine (open-field test); assay type: in vivo, mouse; settings: reserpine 3 mg/kg i.p., FCS005 100 mg/kg p.o. plus L-dopa:carbidopa 100:10 mg/kg i.p.
Procedure: as §2
Levodopa plus carbidopa were administrated i.p. 30 min later. Locomotor activity was evaluated at 2 and 24 h after the administration of reserpine.

recombinant hMAO-A = biological target: T2, recombinant hMAO-A (Homo sapiens, UniProt P21397); experiment: hMAO-A inhibitory activity (Amplex Red MAO kit)
T2 sequence (P21397 1-527): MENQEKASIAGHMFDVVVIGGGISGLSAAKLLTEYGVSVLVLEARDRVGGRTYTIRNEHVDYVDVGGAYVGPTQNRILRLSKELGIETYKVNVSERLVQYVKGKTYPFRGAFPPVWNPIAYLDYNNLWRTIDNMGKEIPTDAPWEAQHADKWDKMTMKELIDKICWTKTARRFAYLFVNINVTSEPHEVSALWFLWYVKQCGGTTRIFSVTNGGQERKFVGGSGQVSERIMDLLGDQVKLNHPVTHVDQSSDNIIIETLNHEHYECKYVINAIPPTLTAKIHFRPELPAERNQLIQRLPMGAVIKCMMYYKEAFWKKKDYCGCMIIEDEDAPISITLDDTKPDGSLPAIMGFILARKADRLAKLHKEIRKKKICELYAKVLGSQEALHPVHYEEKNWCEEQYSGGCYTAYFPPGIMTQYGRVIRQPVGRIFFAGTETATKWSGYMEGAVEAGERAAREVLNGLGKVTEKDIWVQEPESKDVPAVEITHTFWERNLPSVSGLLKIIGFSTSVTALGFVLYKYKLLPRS
Procedure: as §3

[4] = tested on: brain homogenates of mice; experiment: Ex vivo lipid peroxidation (TBARS) in brain homogenates of haloperidol-treated mice; set-up: species or system mouse; settings: 10 days, FCS005 50 mg/kg p.o., levodopa:carbidopa 400:40 mg/kg p.o., haloperidol 1 mg/kg i.p., compared to control animals
Procedure: as §1
The index of lipid peroxidation was evaluated following the protocol described by Hijova, et al.[27]. The brain homogenate (450 µL), 1 mL trichloroacetic acid (10%), and 50 µL of 50 mM phosphate buffer (pH 7.4) were centrifuged at 1850 xg for 10 min at 4°C; then, 1 mL of thiobarbituric acid (0.67%) was added to 1 mL of the supernatant. This mixture was heated to 92°C for 30 min and then cooled in an ice bath (4°C) before the absorbance was measured at 532 nm. The results were expressed as thiobarbituric acid reactive substances (TBARS) in mmol/mL/mg of tissue protein.

male ICR mice [5] = experiment: Haloperidol-induced catalepsy, horizontal bar test; assay type: in vivo, mouse; settings: FCS005 100 mg/kg p.o.
Procedure: Haloperidol was administered to the animals to induce rigidity and akinesia (catalepsy) [25]^,[26]. Catalepsy was defined as the prolonged maintenance of both forepaws in an atypical position on a horizontal bar.
The animals received haloperidol (3 mg/kg) i.p.; FCS005 (100 mg/kg, p.o.), levodopa:carbidopa (400 mg/kg:40 mg/kg; p.o.) or vehicle (p.o) was administrated 30 min before. The reversal of catalepsy was evaluated for 2 min 60 min after the administration of the treatments.

male ICR mice [6] = experiment: Motor activity in mice not pretreated with reserpine (open-field test); assay type: in vivo, mouse; settings: 50 mg/kg p.o.
Procedure: We used male ICR mice six to seven weeks old (25 - 30 g) provided by the bioterium of the Departamento de Farmacia, Facultad de Ciencias, at Universidad Nacional de Colombia. The animals were kept under standard laboratory conditions, 12-hour light-dark cycles, and at room temperature (22 ± 1°C) with food and water available ad libitum.
The open field was a square arena divided into 16 squares with surrounding walls to prevent escape. Animals were placed individually in the middle of the open field and the specific parameter evaluated was the number of cadres traversed during 5 minutes. The open field was cleaned with a water-alcohol (10%) solution before placing the next animal to eliminate possible bias due to odors left by previous subjects.

[7] = tested on: MAO activities in rat brain mitochondria; set-up: method as in PMID 11169165; settings: in vitro; cited from earlier work

Structure (SMILES)	Protein carbonyl groups [1]	Reversal of hypokinesia produced by reserpine (number of cadres traversed) (male ICR mice [2]; 2 h after reserpine, p: 0.007 vs control)	Reversal of hypokinesia produced by reserpine (number of cadres traversed) (male ICR mice [2]; 24 h after reserpine, p: 0.002 vs control)	IC50 (recombinant hMAO-B)	Selectivity of MAO inhibition (recombinant hMAO-B; MAO-B vs MAO-A)	Selectivity index [IC50 (hMAO-A)]/[IC50 (hMAO-B)] (recombinant hMAO-B; hMAO-B selectivity ratio, for FCS005 hMAO-A IC50 assumed to be 100 µM (highest concentration tested))	Number of cadres traversed (male ICR mice [3]; 2 h after reserpine, p: 0.038 vs control)	Number of cadres traversed (male ICR mice [3]; 24 h after reserpine, p: 0.018 vs control)	IC50 (recombinant hMAO-A)	Inhibition of MAO-A isoform activity (recombinant hMAO-A; at the highest concentration tested (100 µM))	Lipid peroxidation levels (TBARS) [4]	Total catalepsy time (male ICR mice [5]; haloperidol 3 mg/kg i.p., levodopa:carbidopa 400:40 mg/kg p.o., at 60 min, p: 0.001)	Cataleptic effects of the treatment itself (male ICR mice [5]; horizontal bar test)	Locomotor activity (number of cadres traversed in 5 min) (male ICR mice [6]; at 2 hours, p: 0.023 vs control)	Locomotor activity (number of cadres traversed in 5 min) (male ICR mice [6]; at 24 hours, p: 0.003 vs control)	Inhibitory actions on MAO activities, isoform preference [7]
Cc1coc2cc3oc(=O)ccc3cc12 [FCS005, 3-methyl-7H-furo[3,2-g]chromen-7-one]	lower	reversal of hypokinesia	reversal of hypokinesia	41.6 ± 2.79 µM	selective inhibitory activity towards MAO-B	> 2.4^c	increased the number of cadres traversed	increased the number of cadres traversed	> 100 µM	did not inhibit MAO-A isoform activity	lower	significant decrease in the total catalepsy time	did not show any cataleptic effects	significant decrease in the locomotor activity	significant decrease in the locomotor activity	
O=c1ccc2cc3ccoc3cc2o1 [Psoralen]																preferentially inhibiting MAO-A activity over MAO-B activity
